Drawing on patent US20250214977A1, “STAT6 INHIBITORS AND USES THEREOF” (Kymera Therapeutics, Inc., priority 2024, published 2025), this text covers IC50 for 59 compounds.

The assay relates to Phosphorylation of STAT6 in human PBMC (CD19+ B cells). The assay can be described thus: Phosphorylated STAT6 (pSTAT6) flow cytometry assay in human PBMC, IL-4 stimulated. Format: cell-based. As to conditions: compound 1 hour, 1 ng/ml IL-4 for 15 minutes, read-out: STAT6 IL4 pSTAT6 assay in PBMC: Average IC50. As to the method:
Example 2. Phosphorylated STAT6 (pSTAT6) Flow Cytometry Assay in Human PBMC
Phosphorylation of STAT6 in human PBMC was quantitatively measured using flow cytometry technology. Human PBMC were seeded in 96-well plates with a density of 0.3 to 0.5 million cells per well in 100 μl fresh media. Compounds were then added to the assay plates with a final top concentration of up to 30 μM in a 1:3 dilution series with total of 9 doses. The assay plates were incubated for 1 hour at 37° C. under 5% CO2. The cells were then stimulated with 1 ng/ml of IL-4 (R&D Systems, Cat #6507-IL) for 15 minutes, followed by fixation for 30 minutes at 4° C. Cells were spun down at 350 g for 5 minutes. The supernatant was removed and cells were washed once with FACS buffer. Cells were permeabilized with 90% MeOH/H2O for 30 minutes at 4° C., followed by one wash with FACS buffer. Non-specific binding were blocked with human Fc for 1 hour at 4 C, followed by one wash with FACS buffer. AF488 conjugated pSTAT6 antibody (BD Biosciences, Cat #612600, 1:100 dilution) and PE conjugated CD19 antibody (BD Biosciences, Cat #341103, 1:50 dilution) diluted in 100 μl FACS buffer was added to each well with overnight incubation at 4° C. Cells were then washed once with FACS buffer and resuspended in 200 μl of FACS buffer for flow cytometry to quantify pSTAT6 in CD19+ B cells. The data was analyzed by GraphPad Prism and the dose dependent pSTAT6 inhibition was fit using the four-parameter inhibitor vs. response nonlinear regression.

Bounds are passed on as bounds.

Broadly, the IC50 is the concentration that inhibits the measured activity by half. For the compound `CN(C)C(=O)c1cc2cc(C3=CCCN(C(=O)CCn4ccnn4)C3)ncc2[nH]1` [Example I-224], the IC50 was 10 to 100 µM.

In the case of `CN(C)C(=O)c1cc2cc(C3=CCCN(C(=O)C4c5ccccc5CCN4C)C3)ccc2o1` (centres unmarked) [Example I-208], the half-inhibitory concentration (IC50) is over 100 µM.

With `COc1ccc(Cn2cc(CC(=O)N3CCC=C(c4ccc5cc(C(=O)N(C)C)[nH]c5c4)C3)cn2)cc1` [Example I-136], the IC50 is over 100 µM.

As for `COC(=O)[C@H]1CC[C@H](c2ccc3oc(C(=O)N(C)C)cc3c2)CN1C(=O)CCn1ccnn1` (single isomer, unassigned) [Example I-152], the IC50 was over 100 µM.

Consider `CN(C)C(=O)c1cc2cc(C3=CCCN(C(=O)Cc4c[nH]c5ncccc45)C3)ccc2o1` [Example I-309], for which the IC50 is over 100 µM.

For the compound `CNc1ccc(-c2cc(C3=CCCN(C(=O)CCn4ccnn4)C3)cc3cc(C(=O)N(C)C)oc23)cc1` [Example I-204], the IC50 was over 100 µM.

Consider `CO[C@@H](C(=O)N1CCC=C(c2ccc3cc(C(=O)N(C)C)[nH]c3c2)C1)c1ccccc1` [Example I-50], for which the IC50 is 10 to 100 µM.

As to `CN(C)C(=O)c1cc2cc(C3=CCCN(C(=O)C4Cc5c(cccc5OCCN)CN4C=O)C3)ccc2o1` (centres unmarked) [Example I-171], the IC50 lay within 10 to 100 µM.

In the case of `CN(C)C(=O)c1cc2cc(C3=CCCN(C(=O)CCc4ccc5c(c4)OCO5)C3)ccc2o1` [Example I-282], the 50% inhibitory concentration (IC50) was over 100 µM.

As for `CN(C)C(=O)c1cc2ccc(C3=CCCN(C(=O)C(O)Cc4ccccc4)C3)cc2[nH]1` (centres unmarked) [Example I-51], the IC50 fell in the range of 10 to 100 µM.

For `CN(C)C(=O)c1cc2ccc(C3=CCCN(C(=O)c4ccccc4CSc4ccccc4)C3)cc2[nH]1` [Example I-92], the IC50 is 10 to 100 µM.

For `CN(C)C(=O)c1cc2ccc(C3=CCCN(C(=O)C4(c5ccc(C(F)(F)F)cc5)CC4)C3)cc2[nH]1` [Example I-84], the IC50 was over 100 µM.

Turning to `CN(C)C(=O)c1cc2cc(C3=CCCN(C(=O)Cc4ncccn4)C3)ccc2o1` [Example I-249], the IC50 is over 100 µM.

Turning to `CN(C)C(=O)c1cc2ccc(C3=CCCN(C(=O)c4nonc4C4CC4)C3)cc2[nH]1` [Example I-44], the IC50 was 10 to 100 µM.

Consider `COC(=O)C1CCC(c2ccc3oc(C(=O)N(C)C)cc3c2)CN1C(=O)CCn1ccnn1` (centres unmarked) [Example I-149], for which the IC50 is over 100 µM.

Take `CN(C)C(=O)c1cc2cc(C3=CCCN(C(=O)C4Cc5c(cccc5-c5ccc(O)cc5)CN4C=O)C3)ccc2o1` (centres unmarked) [Example I-187]: the IC50 was over 100 µM.

With `CN(C)C(=O)c1cc2ccc(C3=CCCN(C(=O)Cc4cccc(OCc5ccccc5)c4)C3)cc2[nH]1` [Example I-107], the half-inhibitory concentration (IC50) is 0.1 to 1 µM.

`CN(C)C(=O)c1cn2cc(C3=CCCN(C(=O)CCn4ccnn4)C3)ccc2n1` [Example I-241]: the IC50 is over 100 µM.

For the compound `CN(C)C(=O)c1cc2cc(C3=CCCN(C(=O)[C@@H](N)Cn4ccnn4)C3)ccc2o1` (single isomer, unassigned) [Example I-173], the IC50 is over 100 µM.

`CN(C)C(=O)c1nc2ccc(C3=CCCN(C(=O)C4Cc5ccccc5CN4C=O)C3)cc2[nH]1` (centres unmarked) [Example I-198]: the IC50 is over 100 µM.

As to `CN(C)C(=O)c1cc2cc(C3=CCCN(C(=O)CCn4ccnn4)C3)cc(C3CCNCC3)c2o1` [Example I-215], the IC50 was in the range of 10 to 100 µM.

For `CN(C)C(=O)c1cc2ccc(C3=CCCN(C(=O)C4CCN(c5ncccc5C(=O)O)CC4)C3)cc2[nH]1` [Example I-109], the concentration for half-maximal inhibition (IC50) lay within 10 to 100 µM.

Take `CN(C)C(=O)c1cc2cc(C3=CCCN(C(=O)CCn4ccnn4)C3)cc(-c3ccc(O)cc3)c2o1` [Example I-205]: the IC50 was in the range of 0.1 to 1 µM.

For the compound `CN(C)C(=O)c1cc2cc(C3=CCCN(C(=O)Cc4ccc5ncccc5c4)C3)ccc2o1` [Example I-273], the IC50 is over 100 µM.

For `CN(C)C(=O)c1nc2ccc(C3=CCCN(C(=O)CCn4ccnn4)C3)cc2o1` [Example I-226], the IC50 is over 100 µM.

In the case of `CNS(=O)(=O)c1cccc(C(=O)N2CCC=C(c3ccc4cc(C(=O)N(C)C)[nH]c4c3)C2)c1` [Example I-70], the half-inhibitory concentration (IC50) was over 100 µM.

With `O=C(CCn1ccnn1)N1CCC=C(c2ccc3cc(-c4ccccn4)[nH]c3c2)C1` [Example I-119], the concentration for half-maximal inhibition (IC50) was over 100 µM.

Consider `CN(C)C(=O)c1cc2ccc(C3=CCCN(C(=O)c4c[nH]nc4I)C3)cc2[nH]1` [Example I-34], for which the IC50 lay within 10 to 100 µM.

Take `CN(C)C(=O)c1cc2cc(C3=CCCN(C(=O)CCc4ccnnc4)C3)ccc2o1` [Example I-225]: the IC50 is over 100 µM.

Turning to `CN(C)C(=O)c1cc2cc(C3=CCCN(C(=O)Cc4coc5ccccc45)C3)ccc2o1` [Example I-271], the IC50 is over 100 µM.

Take `CN(C)C(=O)c1cc2ccc(C3=CCCN(C(=O)c4cc(C#N)ccc4Br)C3)cc2[nH]1` [Example I-144]: the 50% inhibitory concentration (IC50) was over 100 µM.

Consider `CN(C)C(=O)c1cc2ccc(C3=CCCN(C(=O)CCn4ccnn4)C3)c(F)c2[nH]1` [Example I-304], for which the IC50 is under 0.1 µM.

Consider `CN(C)C(=O)c1cc2ccc(C3=CCCN(C(=O)C4CCN(S(C)(=O)=O)CC4)C3)cc2[nH]1` [Example I-140], for which the IC50 is over 100 µM.

For the compound `Cc1ccccc1OCc1ccccc1C(=O)N1CCC=C(c2ccc3cc(C(=O)N(C)C)[nH]c3c2)C1` [Example I-106], the concentration for half-maximal inhibition (IC50) fell in the range of 1 to 10 µM.

For the compound `Cc1cccc(C)c1N1CC(C(=O)N2CCC=C(c3ccc4cc(C(=O)N(C)C)[nH]c4c3)C2)CC1=O` (centres unmarked) [Example I-97], the IC50 fell in the range of 10 to 100 µM.

As to `CN(C)C(=O)c1cc2cc(C3=CCCN(C(=O)CCn4ccnn4)C3)cc(CN3CC(N)C3)c2o1` [Example I-166], the IC50 is over 100 µM.

`CC(=O)Nc1ccc(CC(=O)N2CCC=C(c3ccc4oc(C(=O)N(C)C)cc4c3)C2)cc1` [Example I-287]: the IC50 is over 100 µM.

`CN(C)C(=O)c1cc2cc(C3=CCCN(C(=O)Cc4nc5ccccc5o4)C3)ccc2o1` [Example I-292]: the IC50 was over 100 µM.

On to `CC(=O)N1Cc2ccccc2CC1C(=O)N1CCC=C(c2ccc3oc(C(=O)N(C)C)cc3c2)C1` (centres unmarked) [Example I-170], for which the IC50 is over 100 µM.

Consider `CN(C)C(=O)c1cc2ccc(C3=CCCN(C(=O)[C@H]4Cc5ccccc5CN4)C3)cc2[nH]1` [Example I-59], for which the IC50 is 1 to 10 µM.

`COC(=O)C1CCC(c2ccc3oc(C(=O)N(C)C)cc3c2)CN1C(=O)CCn1ccnn1` (mixture of isomers) [Example I-1]: the IC50 was over 100 µM.

In the case of `CN(C)C(=O)c1cc2ccc(C3=CCCN(C(=O)[C@@H]4C[C@H]4c4ccc(Br)cc4)C3)cc2[nH]1` [Example I-56], the IC50 lay in the range of 10 to 100 µM.

Turning to `CN(C)C(=O)c1cc2cc(C3=CCCN(C(=O)Cc4cnccn4)C3)ccc2o1` [Example I-246], the IC50 was over 100 µM.

Consider `O=C(CCn1ccnn1)N1CCC=C(c2ccc3cc(C(=O)N4CCC4)[nH]c3c2)C1` [Example I-125], for which the IC50 was over 100 µM.

Take `CN(C)C(=O)c1cc2ccc(C3=CCCN(C(=O)c4snnc4C4CC4)C3)cc2[nH]1` [Example I-143]: the IC50 was over 100 µM.

With `CN(C)C(=O)c1cc2ccc(C3=CCCN(C(=O)CCn4ccnn4)C3)nc2[nH]1` [Example I-196], the IC50 is 10 to 100 µM.

As to `CN(C)C(=O)c1cc2ccc(C3=CCCN(C(=O)C4NCCc5ccccc54)C3)cc2[nH]1` (centres unmarked) [Example I-60], the IC50 is over 100 µM.

For `COC(=O)[C@H]1CC[C@@H](c2ccc3oc(C(=O)N(C)C)cc3c2)CN1C(=O)CCn1ccnn1` (single isomer, unassigned) [Example I-151], the half-maximal inhibitory concentration (IC50) was over 100 µM.

For the compound `CN(C)C(=O)c1cc2ccc(C3=CCCN(C(=O)c4cccnc4SCc4ccccc4)C3)cc2[nH]1` [Example I-95], the IC50 was over 100 µM.

On to `CN(C)C(=O)c1cc2ccc(C3=CCCN(C(=O)c4ccc5c(n4)OCCO5)C3)cc2[nH]1` [Example I-58], for which the IC50 is over 100 µM.

Turning to `CC(=O)NC(Cc1cccc(F)c1)C(=O)N1CCC=C(c2ccc3cc(C(=O)N(C)C)[nH]c3c2)C1` (centres unmarked) [Example I-82], the IC50 is 10 to 100 µM.

In the case of `CN(C)C(=O)c1cc2cc([C@@H]3CC[C@H](CO)N(C(=O)CCn4ccnn4)C3)ccc2o1` (single isomer, unassigned) [Example I-156], the IC50 is over 100 µM.

For the compound `CN(C)C(=O)c1cc2ccc(C3=CCCN(C(=O)CCn4ccnn4)C3)cc2s1` [Example I-269], the IC50 was in the range of 10 to 100 µM.

In the case of `CN(C)C(=O)c1cc2cc(C3CCC(CO)N(C(=O)CCn4ccnn4)C3)ccc2o1` (centres unmarked) [Example I-155], the half-maximal inhibitory concentration (IC50) was over 100 µM.

On to `Cc1nocc1C(=O)N1CCC=C(c2ccc3cc(C(=O)N(C)C)[nH]c3c2)C1` [Example I-35], for which the half-maximal inhibitory concentration (IC50) was in the range of 10 to 100 µM.

As for `CN(C)C(=O)c1cc2ccc(C3=CCCN(C(=O)CCc4ccon4)C3)cc2[nH]1` [Example I-20], the IC50 was over 100 µM.

Consider `CN(C)C(=O)c1cc2ccc(C3=CCCN(C(=O)CCc4ccc(C#N)cc4)C3)cc2[nH]1` [Example I-162], for which the IC50 was over 100 µM.

`CN(C)C(=O)c1nc2cc(C3=CCCN(C(=O)CCn4ccnn4)C3)ccc2o1` [Example I-214]: the IC50 is over 100 µM.

Regarding `CN(C)C(=O)c1cc2ccc(C3=CCCN(C(=O)c4[nH]nc5c4CS(=O)(=O)C5)C3)cc2[nH]1` [Example I-57], the IC50 is 10 to 100 µM.
